Laboratory results: patent US4201781A, “Substituted 7[s-oxopyrido[2,3-d]pyrimidine carboxamido acetamido]cephalosporins” (Dainippon Pharmaceutical Co., Ltd., priority 1977, dated 1980)
Like-named read-outs stand apart in the source and are kept apart here.

Assays:
[1] = system: Corynebacterium pyrogenes C-21; assay: In vitro antibacterial activity (MIC); assay type: cell-based; settings: Corynebacterium, C21, read-out: minimum inhibitory concentration (MIC)
Excerpt: (§1) The numerals in the table show minimum inhibitory concentrations (MIC)

[2] = system: Enterobacter cloacae P-2540; assay: In vitro antibacterial activity (MIC); assay type: cell-based; settings: Enterobacter cloacae, P2540, read-out: minimum inhibitory concentration (MIC)
Excerpt: as §1

[3] = system: Escherichia coli NIHJ JC-2; assay: In vitro antibacterial activity (MIC); assay type: cell-based; settings: Escherichia coli, NIHJJC2, read-out: minimum inhibitory concentration (MIC)
Excerpt: as §1

Escherichia coli P-5101 [4] = assay: In vitro antibacterial activity (MIC); assay type: cell-based; settings: Escherichia coli, P5101, read-out: minimum inhibitory concentration (MIC)
Excerpt: as §1

[5] = system: Klebsiella pneumoniae No. 13; assay: In vitro antibacterial activity (MIC); assay type: cell-based; settings: Klebsiella pneumoniae, NO.13, read-out: minimum inhibitory concentration (MIC)
Excerpt: as §1

Proteus mirabilis P-2381 = assay: In vitro antibacterial activity (MIC); assay type: cell-based; settings: Proteus mirabilis, P2381, read-out: minimum inhibitory concentration (MIC)
Excerpt: as §1

Proteus morganii Kono = assay: In vitro antibacterial activity (MIC); assay type: cell-based; settings: Morganella morganii, read-out: minimum inhibitory concentration (MIC)
Excerpt: as §1

[6] = system: Pseudomonas aeruginosa No. 12; assay: In vitro antibacterial activity (MIC); assay type: cell-based; settings: Pseudomonas aeruginosa, NO.12, read-out: minimum inhibitory concentration (MIC)
Excerpt: as §1

[7] = system: Pseudomonas aeruginosa Tsuchijima; assay: In vitro antibacterial activity (MIC); assay type: cell-based; settings: Pseudomonas aeruginosa, read-out: minimum inhibitory concentration (MIC)
Excerpt: as §1

[8] = system: Salmonella enteritidis No. 1891; assay: In vitro antibacterial activity (MIC); assay type: cell-based; settings: Salmonella enterica, ENTERITIDIS, read-out: minimum inhibitory concentration (MIC)
Excerpt: as §1

[9] = system: Salmonella typhimurium S-9; assay: In vitro antibacterial activity (MIC); assay type: cell-based; settings: Salmonella enterica, TYPHIMURIUM, read-out: minimum inhibitory concentration (MIC)
Excerpt: as §1

[10] = system: Serratia marcescens IFO 3736; assay: In vitro antibacterial activity (MIC); assay type: cell-based; settings: Serratia marcescens, IFO3736, read-out: minimum inhibitory concentration (MIC)
Excerpt: as §1

[11] = system: Staphylococcus aureus 209P JC-1; assay: In vitro antibacterial activity (MIC); assay type: cell-based; settings: Staphylococcus aureus, 209P, read-out: minimum inhibitory concentration (MIC)
Excerpt: as §1

[12] = system: Staphylococcus aureus No. 50774; assay: In vitro antibacterial activity (MIC); assay type: cell-based; settings: Staphylococcus aureus, NO.50774, read-out: minimum inhibitory concentration (MIC)
Excerpt: as §1

[13] = system: Streptococcus pyrogenes 65A; assay: In vitro antibacterial activity (MIC); assay type: cell-based; settings: Streptococcus, 65A, read-out: minimum inhibitory concentration (MIC)
Excerpt: as §1

Escherichia coli P-140a = assay: In vitro antibacterial activity (MIC); assay type: cell-based; settings: Escherichia coli, read-out: minimum inhibitory concentration (MIC)
Excerpt: as §1
(§2) *Clinically isolated Cephalexinresistant strain.

Shigella flexneri 2a = assay: In vitro antibacterial activity (MIC); assay type: cell-based; settings: Shigella flexneri, 2A, read-out: minimum inhibitory concentration (MIC)
Excerpt: as §1, §2

[14] = system: Shigella flexneri 4a P-330; assay: In vitro antibacterial activity (MIC); assay type: cell-based; settings: Shigella flexneri, 4AP330, read-out: minimum inhibitory concentration (MIC)
Excerpt: as §1, §2

[15] = system: Staphylococcus aureus No. 50774; assay: In vivo efficacy against systemic infection in mice; parameters: species or system male mice (ddY); settings: NO.50774, sc, 336 h, read-out: ED50 (median effective dose)
Description: (§3) Compounds 1,2, A and B were each dissolved in deionized water to prepare injectable solutions having various concentrations.
(§4) Each of the injectable solutions was administered to mice infected with each of the bacteria described below under the conditions described below, and the median effective doses (ED50) obtained are shown in Table II. […]
(§5) male mice (ddY) weighing about 20 g
(1) Staphylococcus aureus No. 50774; Intravenous infection with 50 to 100 LD50 (about 5×10^8 cells/mouse) of a bacterial suspension in saline. twice, about 5 minutes and 6 hours after infection. […]
(§6) Note; The numerals in the table show ED50 (mg/kg). ED50 values
(§7) were calculated in accordance with the BehrensKaerber method (Arch. Exp.

Escherichia coli P-5101 [16] = assay: as above; parameters: species or system male mice (ddY); settings: P5101, sc, 168 h, read-out: ED50 (median effective dose)
Description: as §3
Each of the injectable solutions was administered to mice infected with each of the bacteria described below under the conditions described below, and the median effective doses (ED50) obtained are shown in Table II.
as §5
(2) Escherichia coli P-5101; Intraperitoneal infection with 50 to 100 LD50 (about 9×10^6 cells/mouse) of a bacterial suspension in trypto-soy broth with 4% mucin.
twice, about 5 minutes and 6 hours after infection.
as §6, §7

[17] = system: Pseudomonas aeruginosa No. 12; assay: as above; parameters: species or system male mice (ddY); settings: 168 h, read-out: ED50 (median effective dose)
Description: as §3, §4, §5
(3) Pseudomonas aeruginosa No. 12; Intraperitoneal infection with 50 to 100 LD50 (about 5×10^3 cells/mouse) of a bacterial suspension in trypto-soy broth with 4% mucin. twice, about 5 minutes and 6 hours after infection. […]
as §6, §7

Acute toxicity in mice = settings: mouse, in vivo, ip; read-out: LD50 (median lethal dose)
Description: Injectable solutions containing compounds 1, 2 and compound A in various concentrations were administered to male mice (ddY) (4 to 8 in each group) in a dose of 0.1 ml per 10 g of body weight. The number of dead mice was counted after a lapse of 7 days, and the value of median lethal dose (LD50, mg/kg) was calculated.
Note: The LD50 values were calculated in accordance with the […]

Solubility in water = assay type: physicochemical
Description: |Solubility in deionized water at 25° C.

[18] = system: Gram-negative and Gram-positive bacteria; assay: Antibacterial activity (general statement)

Work on `Cn1nnnc1SCC1=C(C(=O)[O-])N2C(=O)C(NC(=O)[C@H](NC(=O)c3c[nH]c4nc(N5CCNCC5)ncc4c3=O)c3ccc(O)cc3)[C@H]2SC1.[Na+]` (some centres unmarked) yielded an MIC [1] of 6.25 µg/mL, an MIC [2] of 3.13 µg/mL and an MIC [3] of 1.56 µg/mL. For the same molecule, the MIC (Escherichia coli P-5101 [4]) was 0.78 µg/mL, the MIC [5] was 0.78 µg/mL and the MIC (Proteus mirabilis P-2381) was 12.5 µg/mL. The MIC (Proteus morganii Kono) was 25 µg/mL, the MIC [6] was 6.25 µg/mL and the MIC [7] was 3.13 µg/mL. For the same molecule, the MIC [8] was 0.78 µg/mL, the MIC [9] was 0.78 µg/mL and the MIC [10] was 6.25 µg/mL. It also gave an MIC [11] of 3.13 µg/mL, an MIC [12] of 6.25 µg/mL and an MIC [13] of 0.2 µg/mL. For the same molecule, the MIC (Escherichia coli P-140a) was 1.56 µg/mL, the MIC (Shigella flexneri 2a) was 0.78 µg/mL and the MIC [14] was 12.5 µg/mL. For the same molecule, the ED50 [15] was ~7.8 mg/kg, the ED50 (Escherichia coli P-5101 [16]) was ~0.4 mg/kg and the ED50 ([17]; NO.12, po) was > 100 mg/kg. For the same molecule, the ED50 ([17]; NO.12, sc) was 4.8 mg/kg, the LD50 at 168 h (Acute toxicity in mice) was ~1500 mg/kg and the solubility (Solubility in water; deionized water at 25° C.) was ~500 µg/mL. For the same molecule, the “Solubility in water (in words)” value (Solubility in water; water / deionized water / aqueous medium) was “extremely low solubility in water” and the “antibacterial activity (in words)” value [18] was “superior antibacterial activity as the compound of the present invention”.
